Experimental data reported in patent publication US12319672B2, “Alpha-D-galactopyranoside derivatives” (Idorsia Pharmaceuticals Ltd, priority 2019, dated 2025).

Experiments:
human Gal-3 (hGal-3) = human Gal-3 (hGal-3) (Homo sapiens (Human), UniProt P17931); assay: Competitive binding assay: binding of biotinylated hGal-3 to microplate-adsorbed asialofetuin (ASF); conditions: Activity on hGal-3; mean values of several measurements
Procedure, shortened: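 For hGal-1, a variant with all six cysteines replaced by serines is preferred. Either galectin, biotinylated at 300-1000 ng/mL, competes with compound for microplate-bound ASF over 3 h at 4° C; peroxidase/ABTS detection gives IC50, averaged.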

human Gal-1 (hGal-1) = assay: Competitive binding assay: binding of biotinylated hGal-1 to microplate-adsorbed asialofetuin (ASF); conditions: Activities on hGal-1; mean values of several measurements
Chain of human Gal-1 (hGal-1) (P09382 2-135 limits assumed): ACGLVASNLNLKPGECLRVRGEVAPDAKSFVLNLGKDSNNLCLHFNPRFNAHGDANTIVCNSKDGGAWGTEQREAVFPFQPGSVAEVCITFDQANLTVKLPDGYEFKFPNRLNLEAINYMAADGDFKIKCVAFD
Procedure, shortened: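 Spectrophotometric readout (streptavidin-peroxidase, ABTS) of biotinylated galectin retained on ASF-coated wells. Biotinylated hGal-1 or hGal-3, 300-1000 ng/mL, co-incubated with test compound 3 h at 4° C, then washed. Mean IC50 from repeat runs.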

Chain of human Gal-3 (hGal-3) (P17931 whole entry): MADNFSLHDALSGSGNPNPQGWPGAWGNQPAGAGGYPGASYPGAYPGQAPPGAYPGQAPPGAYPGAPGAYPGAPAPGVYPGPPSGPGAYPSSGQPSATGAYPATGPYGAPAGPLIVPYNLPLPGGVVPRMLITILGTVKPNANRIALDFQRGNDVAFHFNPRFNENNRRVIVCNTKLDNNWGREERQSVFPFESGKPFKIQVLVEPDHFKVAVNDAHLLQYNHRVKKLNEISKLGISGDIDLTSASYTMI

IC50 (human Gal-3 (hGal-3)) [nM]	IC50 (human Gal-1 (hGal-1)) [nM]	SMILES
100	1370	CO[C@@H]1[C@@H](n2cc(-c3cc(F)c(F)c(F)c3)nn2)[C@@H](O)[C@@H](CO)O[C@@H]1CC1CN(C2CCN(C(=O)CC(C)(C)C)CC2)C(=O)O1 (mixture of isomers) [Example 5.19, (RS)-3-(1-(3,3-dimethylbutanoyl)piperidin-4-yl)-5-(((2R,3R,4S,5R,6R)-5-hydroxy-6-(hydroxymethyl)-3-methoxy-4-(4-(3,4,5-trifluorophenyl)-1H-1,2,3-triazol-1-yl)tetrahydro-2H-pyran-2-yl)methyl)oxazolidin-2-one]
140	5900	CO[C@@H]1[C@@H](n2cc(-c3cc(F)c(F)c(F)c3)nn2)[C@@H](O)[C@@H](CO)O[C@@H]1Cc1cc(C2CCN(CCC(C)(C)C)CC2)on1 [Example 3.42, (2R,3R,4S,5R,6R)-6-((5-(1-(3,3-dimethylbutyl)piperidin-4-yl)isoxazol-3-yl)methyl)-2-(hydroxymethyl)-5-methoxy-4-(4-(3,4,5-trifluorophenyl)-1H-1,2,3-triazol-1-yl)tetrahydro-2H-pyran-3-ol]
65	884	CO[C@@H]1[C@@H](n2cc(-c3cc(F)c(F)c(F)c3)nn2)[C@@H](O)[C@@H](CO)O[C@@H]1Cn1cc(C2CCN(C(=O)NC3CC3)CC2)nn1 [Example 4.32, N-cyclopropyl-4-(1-(((2R,3R,4S,5R,6R)-5-hydroxy-6-(hydroxymethyl)-3-methoxy-4-(4-(3,4,5-trifluorophenyl)-1H-1,2,3-triazol-1-yl)tetrahydro-2H-pyran-2-yl)methyl)-1H-1,2,3-triazol-4-yl)piperidine-1-carboxamide]
18	160	CO[C@@H]1[C@@H](n2cc(-c3cc(F)c(F)c(F)c3)nn2)[C@@H](O)[C@@H](CO)O[C@@H]1C[C@@H]1CN(C2CCN(S(C)(=O)=O)CC2)C(=O)O1 [Example 5.08, (R)-5-(((2R,3R,4S,5R,6R)-5-hydroxy-6-(hydroxymethyl)-3-methoxy-4-(4-(3,4,5-trifluorophenyl)-1H-1,2,3-triazol-1-yl)tetrahydro-2H-pyran-2-yl)methyl)-3-(1-(methylsulfonyl)piperidin-4-yl)oxazolidin-2-one]
240	1850	CC(=O)N1CCC([C@@H]2CC(C[C@H]3O[C@H](CO)[C@H](O)[C@H](n4cc(-c5cc(F)c(F)c(F)c5)nn4)[C@H]3O)=NO2)CC1 [Example 3.20, 1-(4-((S)-3-(((2R,3R,4R,5R,6R)-3,5-dihydroxy-6-(hydroxymethyl)-4-(4-(3,4,5-trifluorophenyl)-1H-1,2,3-triazol-1-yl)tetrahydro-2H-pyran-2-yl)methyl)-4,5-dihydroisoxazol-5-yl)piperidin-1-yl)ethan-1-one]
130	2830	CO[C@@H]1[C@@H](n2cc(-c3cc(F)c(F)c(F)c3)nn2)[C@@H](O)[C@@H](CO)O[C@@H]1Cc1cc(C2CCN(CC3CC3)CC2)on1 [Example 3.43, (2R,3R,4S,5R,6R)-6-((5-(1-(cyclopropylmethyl)piperidin-4-yl)isoxazol-3-yl)methyl)-2-(hydroxymethyl)-5-methoxy-4-(4-(3,4,5-trifluorophenyl)-1H-1,2,3-triazol-1-yl)tetrahydro-2H-pyran-3-ol]
670	4020	CO[C@@H]1[C@@H](n2cc(-c3cc(F)c(F)c(F)c3)nn2)[C@@H](O)[C@@H](CO)O[C@@H]1C[C@H]1CC(C2CCN(C(C)=O)CC2)=NO1 [Example 3.13, 1-(4-((R)-5-(((2R,3R,4S,5R,6R)-5-hydroxy-6-(hydroxymethyl)-3-methoxy-4-(4-(3,4,5-trifluorophenyl)-1H-1,2,3-triazol-1-yl)tetrahydro-2H-pyran-2-yl)methyl)-4,5-dihydroisoxazol-3-yl)piperidin-1-yl)ethan-1-one]
13	100	CCCS(=O)(=O)N1CCC(n2cc(C[C@H]3O[C@H](CO)[C@H](O)[C@H](n4cc(-c5cc(F)c(F)c(F)c5)nn4)[C@H]3OC)nn2)CC1 [Example 4.09, (2R,3R,4S,5R,6R)-2-(hydroxymethyl)-5-methoxy-6-((1-(1-(propylsulfonyl)piperidin-4-yl)-1H-1,2,3-triazol-4-yl)methyl)-4-(4-(3,4,5-trifluorophenyl)-1H-1,2,3-triazol-1-yl)tetrahydro-2H-pyran-3-ol]
93	1810	CO[C@@H]1[C@@H](n2cc(-c3cc(F)c(F)c(F)c3)nn2)[C@@H](O)[C@@H](CO)O[C@@H]1Cn1cc(C(C)(C)C)nn1 [Example 4.38, (2R,3R,4S,5R,6R)-6-((4-(tert-butyl)-1H-1,2,3-triazol-1-yl)methyl)-2-(hydroxymethyl)-5-methoxy-4-(4-(3,4,5-trifluorophenyl)-1H-1,2,3-triazol-1-yl)tetrahydro-2H-pyran-3-ol]
1160	8140	CO[C@@H]1[C@@H](n2cc(-c3cc(F)c(F)c(F)c3)nn2)[C@@H](O)[C@@H](CO)O[C@@H]1CC1=NOC(C2CCNCC2)C1 (mixture of isomers) [Example 3.36, (2R,3R,4S,5R,6R)-2-(hydroxymethyl)-5-methoxy-6-(((RS)-5-(piperidin-4-yl)-4,5-dihydroisoxazol-3-yl)methyl)-4-(4-(3,4,5-trifluorophenyl)-1H-1,2,3-triazol-1-yl)tetrahydro-2H-pyran-3-ol]
270	15800	CN1CCC(c2cc(C[C@H]3O[C@H](CO)[C@H](O)[C@H](n4cc(-c5cc(F)c(F)c(F)c5)nn4)[C@H]3O)no2)CC1 [Example 3.29, (2R,3R,4R,5R,6R)-2-(hydroxymethyl)-6-((5-(1-methylpiperidin-4-yl)isoxazol-3-yl)methyl)-4-(4-(3,4,5-trifluorophenyl)-1H-1,2,3-triazol-1-yl)tetrahydro-2H-pyran-3,5-diol]
160	11600	CCC(=O)O[C@@H]1[C@@H](n2cc(-c3cc(F)c(F)c(F)c3)nn2)[C@@H](O)[C@@H](CO)O[C@@H]1Cc1cc(C2CCNCC2)on1 [Example 2.16, (2R,3R,4S,5R,6R)-5-hydroxy-6-(hydroxymethyl)-2-((5-(piperidin-4-yl)isoxazol-3-yl)methyl)-4-(4-(3,4,5-trifluorophenyl)-1H-1,2,3-triazol-1-yl)tetrahydro-2H-pyran-3-yl propionate]

Further lines, the compound ahead of its results:

SMILES	IC50 (human Gal-3 (hGal-3)) [nM]	IC50 (human Gal-1 (hGal-1)) [nM]
CO[C@@H]1[C@@H](n2cc(-c3cc(F)c(F)c(F)c3)nn2)[C@@H](O)[C@@H](CO)O[C@@H]1Cc1cc(C2(O)CCCCC2)on1 [Ex 1.73]	190	3120
CO[C@@H]1[C@@H](n2cc(-c3ccc(F)c(F)c3F)nn2)[C@@H](O)[C@@H](CO)O[C@@H]1Cc1cc(C2(O)CCCC2)on1 [Ex 1.234]	57	1270
CCOC(=O)C1CCC(O)(c2cc(C[C@H]3O[C@H](CO)[C@H](O)[C@H](n4cc(-c5cc(F)c(F)c(F)c5)nn4)[C@H]3O)no2)CC1 (some centres unmarked) [Ex 1.78]	1000	9640
CO[C@@H]1[C@@H](n2cc(-c3ccc(C)c(F)c3F)nn2)[C@@H](O)[C@@H](CO)O[C@@H]1Cc1cc(C(C)(O)c2ccccc2)on1 (some centres unmarked) [Ex 1.318]	160	8870
CCOC(=O)N1CCC(c2cc(C[C@H]3O[C@H](CO)[C@H](O)[C@H](n4cc(-c5ccc(C)c(F)c5)nn4)[C@H]3OC)no2)CC1 [Ex 1.201]	67	2940
CCOC(=O)CC(C)(C)c1cc(C[C@H]2O[C@H](CO)[C@H](O)[C@H](n3cc(-c4cc(F)c(F)c(F)c4)nn3)[C@H]2OC)on1 [Ex 1.208]	130	1640
CO[C@@H]1[C@@H](n2cc(-c3ccc(F)c(F)c3F)nn2)[C@@H](O)[C@@H](CO)O[C@@H]1Cc1cc(C(C)(C)C)on1 [Ex 1.193]	120	1250
CO[C@@H]1[C@@H](n2cc(-c3ccc(Br)c(F)c3)nn2)[C@@H](O)[C@@H](CO)O[C@@H]1CC1CC(C2CCN(C(=O)OC(C)(C)C)CC2)=NO1 (some centres unmarked) [Ex 1.117]	330	1140
COc1ccc(C2=NOC(C[C@H]3O[C@H](CO)[C@H](O)[C@H](n4cc(-c5cc(F)c(F)c(F)c5)nn4)[C@H]3OC)C2)cc1 (some centres unmarked) [Ex 1.294]	1540	14000
OC[C@H]1O[C@H](Cc2cc(C3CC3)on2)[C@H](O)[C@@H](n2cc(-c3cc(F)c(F)c(F)c3)nn2)[C@H]1O [Ex 1.52]	500	7980
COc1ccc(C2=NOC(C[C@@H]3O[C@H](CO)[C@H](O)[C@H](n4cc(-c5cc(F)c(F)c(F)c5)nn4)[C@H]3O)C2)cc1 (some centres unmarked) [Ex 1.88]	6230	22200
CC(=O)O[C@@H]1[C@@H](n2cc(-c3cc(F)c(F)c(F)c3)nn2)[C@@H](O)[C@@H](CO)O[C@@H]1CC1CC(C2CCN(C(=O)OC(C)(C)C)CC2)=NO1 (some centres unmarked) [Ex 1.44]	65	1710
CO[C@@H]1[C@@H](n2cc(-c3ccc(F)c(F)c3F)nn2)[C@@H](O)[C@@H](CO)O[C@@H]1Cc1cc(C2CCC2)on1 [Ex 1.226]	130	1190
CCOC(C)(C)c1cc(C[C@H]2O[C@H](CO)[C@H](O)[C@H](n3cc(-c4cc(F)c(F)c(F)c4)nn3)[C@H]2OC)on1 [Ex 1.309]	690	2740
CO[C@@H]1[C@@H](n2cc(-c3cc(F)c(F)c(F)c3)nn2)[C@@H](O)[C@@H](CO)O[C@@H]1Cc1cc(C2CCN(C)C(=O)C2)no1 (some centres unmarked) [Ex 1.90]	260	1780
CO[C@@H]1[C@@H](n2cc(-c3ccc(F)c(F)c3F)nn2)[C@@H](O)[C@@H](CO)O[C@@H]1Cc1cc(C2CCCCC2)on1 [Ex 1.175]	310	4760
